Results taken from US12139492B2 (Endotarget Inc., priority 2021, dated 2024).
pIC50: −log10 of the molar value. Like-named read-outs stand apart in the source and are kept apart here.

Experiments:
[1] = target: T1, BTK (Homo sapiens, UniProt Q06187); assay: Degradation of BTK protein in Namalwa cells (Western blot; DC50, Dmax); details: for degradation of BTK protein / degradation of BTK protein at 10^−6 M: Namalwa B lymphocyte cells, Western blot; for degradation of BTK protein: various concentrations, 24 hours
T1 sequence (Q06187 whole entry): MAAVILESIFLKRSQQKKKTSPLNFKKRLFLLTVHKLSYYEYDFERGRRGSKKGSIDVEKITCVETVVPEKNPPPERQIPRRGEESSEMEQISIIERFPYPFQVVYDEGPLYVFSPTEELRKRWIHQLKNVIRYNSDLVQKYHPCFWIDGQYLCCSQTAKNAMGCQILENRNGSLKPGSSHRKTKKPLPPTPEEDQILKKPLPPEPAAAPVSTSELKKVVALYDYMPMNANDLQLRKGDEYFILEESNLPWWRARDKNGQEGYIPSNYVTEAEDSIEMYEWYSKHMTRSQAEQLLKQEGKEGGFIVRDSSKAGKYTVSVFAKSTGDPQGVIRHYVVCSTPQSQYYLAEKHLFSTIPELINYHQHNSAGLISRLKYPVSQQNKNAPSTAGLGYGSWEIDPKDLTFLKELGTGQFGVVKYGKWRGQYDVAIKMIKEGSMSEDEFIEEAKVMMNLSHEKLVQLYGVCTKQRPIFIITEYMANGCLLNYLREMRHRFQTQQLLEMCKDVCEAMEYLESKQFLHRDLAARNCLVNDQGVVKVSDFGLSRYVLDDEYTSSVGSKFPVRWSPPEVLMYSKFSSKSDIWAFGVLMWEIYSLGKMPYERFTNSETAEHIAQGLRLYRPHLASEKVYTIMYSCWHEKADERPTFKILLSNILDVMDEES
Procedure: (§2) Namalwa, JeKo-1, or Mino cells were plated in 24-well plates at a density of 10^5 cells/well. Media containing various drug concentrations were added on the day following plating (day 0) and allowed to incubate for 24 hours for Western blot. Media with the tested compound was changed every other day. […] Media were removed and dishes were washed with 1×DPBS. Lysates were made by adding 150 μL of complete lysis solution and scraping cells into a 1.5 mL microcentrifuge tube. Lysates were placed on a rotisserie at 4° C. for 30 min and then spun at 4° C. at 12000 rcf for 10 min. Supernatants were assayed for protein content, snap-frozen, and stored a −80° C. if not run immediately. Then 50 μg of protein was subjected to Western blot protocol. […] They were then imaged on a LICOR infrared scanner.

[2] = target: T1, BTK; assay: Degradation of BTK protein in JeKo-1 cells (Western blot; DC50, Dmax); details: JeKo-1 mantle cell lymphoma cells, various concentrations, 24 hours
Procedure: as §2

[3] = test system: JeKo-1 cells; assay: Antiproliferative effect, MTS cell viability assay, JeKo-1 cells; format: cell-based; details: Homo sapiens; JeKo-1 mantle cell lymphoma cells; read-out: IC50 (anti-proliferation) JeKO-1 cells
Outline: (§1)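 MTS read-out, A490 of formazan from metabolically active cells; compound 0–10 μM (0, 0.001, 0.01, 0.1, 1, 10 μM), 72 h exposure.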

[4] = test system: Mino cells; assay: Antiproliferative effect, MTS cell viability assay, Mino cells; format: cell-based; details: Homo sapiens, Mino mantle cell lymphoma cells, read-out: IC50 (anti-proliferation) Mino cells
Outline: as §1

[5] = target: T1, BTK; assay: BTK degradation, DC50 and Dmax of Table 1 (cell line not given); format: cell-based; set-up: endogenous in cells; details: for DC50: concentration giving 50% reduction of BTK expression level

Row | degradation of BTK protein [1] | degradation of BTK protein [2] | Dmax [5] | DC50 [5] | DC50 ([1]; read-out: DC50 (BTK degradation), concentration giving 50% reduction of BTK expression level, cell line not given) | Dmax ([1]; read-out: Dmax (BTK degradation)) | degradation of BTK protein at 10^−6 M [1] | Compound | pIC50 [3] | pIC50 ([4]; MINO) | pIC50 [4]
1 | dose-dependent degradation | dose-dependent degradation | > 90% | < 10 nM |  |  |  | Nc1ncnc2c1c(-c1ccc(Oc3ccccc3)cc1)nn2C1CCN(C(=O)N2CCC(CN3CCN(c4ccc5c(c4)CN(C4CCC(=O)NC4=O)C5=O)CC3)CC2)CC1 (stereo not drawn) [Compound 86, 3-(5-(4-((1-(4-(4-amino-3-(4-phenoxyphenyl)-1H-pyrazolo(3,4-d)pyrimidin-1-yl)piperidine-1-carbonyl)piperidin-4-yl)methyl)piperazin-1-yl)-1-oxoisoindolin-2-yl)piperidine-2,6-dione] | > 6.00 | > 6.00 | 
2 | dose-dependent degradation | dose-dependent degradation |  |  | 10 to 50 nM | > 90% |  | Nc1ncnc2c1c(-c1ccc(Oc3ccccc3)cc1)nn2C1CCN(C2CCN(CC3CN(c4ccc5c(c4)C(=O)N(C4CCC(=O)NC4=O)C5=O)C3)C2)CC1 (stereo not drawn) [Compound 425, 5-(3-((3-(4-(4-amino-3-(4-phenoxyphenyl)-1H-pyrazolo(3,4-d)pyrimidin-1-yl)piperidin-1-yl)pyrrolidin-1-yl)methyl)azetidin-1-yl)-2-(2,6-dioxopiperidin-3-yl)isoindoline-1,3-dione] | 5.00 to 6.00 | 5.00 to 6.00 | 
3 | dose-dependent degradation |  | > 75% | > 50 nM |  |  |  | Nc1ncnc2c1c(-c1ccc(Oc3ccccc3)cc1)nn2C1CCN(C(=O)N2CCC(N3CCN(c4ccc5c(c4)C(=O)N(C4CCC(=O)NC4=O)C5=O)CC3)CC2)CC1 (stereo not drawn) [Compound 81, 5-(4-(1-(4-(4-amino-3-(4-phenoxyphenyl)-1H-pyrazolo(3,4-d)pyrimidin-1-yl)piperidine-1-carbonyl)piperidin-4-yl)piperazin-1-yl)-2-(2,6-dioxopiperidin-3-yl)isoindoline-1,3-dione] | < 5.00 | < 5.00 | 
4 | dose-dependent degradation |  | > 90% | 10 to 50 nM |  |  | degradation | Nc1ncnc2c1c(-c1ccc(Oc3ccccc3)cc1)nn2[C@@H]1CCCN(C2CCN(C(=O)N3CCC(CN4CCN(c5ccc6c(c5)C(=O)N(C5CCC(=O)NC5=O)C6=O)CC4)CC3)CC2)C1 (stereo partly drawn) [Compound 169, 5-(4-((1-((R)-3-(4-amino-3-(4-phenoxyphenyl)-1H-pyrazolo(3,4-d)pyrimidin-1-yl)-(1,4′-bipiperidine)-1′-carbonyl)piperidin-4-yl)methyl)piperazin-1-yl)-2-(2,6-dioxopiperidin-3-yl)isoindoline-1,3-dione] | > 6.00 | 5.00 to 6.00 | 
5 | dose-dependent degradation |  | > 75% | > 50 nM |  |  | degradation | Nc1ncnc2c1c(-c1ccc(Oc3ccccc3)cc1)nn2[C@@H]1CCCN(C2CCN(C(=O)N3CCC(C4CCN(c5ccc6c(c5)C(=O)N(C5CCC(=O)NC5=O)C6=O)CC4)CC3)CC2)C1 (stereo partly drawn) [Compound 163, 5-(1′-((R)-3-(4-amino-3-(4-phenoxyphenyl)-1H-pyrazolo(3,4-d)pyrimidin-1-yl)-(1,4′-bipiperidine)-1′-carbonyl)-(4,4′-bipiperidin)-1-yl)-2-(2,6-dioxopiperidin-3-yl)isoindoline-1,3-dione] | < 5.00 | 5.00 to 6.00 | 
6 |  |  | > 50% | > 50 nM |  |  | degradation | Nc1ncnc2c1c(-c1ccc(Oc3ccccc3)cc1)nn2C1CCN(C(=O)N2CCN(c3ccc4c(c3)C(=O)N(C3CCC(=O)NC3=O)C4=O)CC2)CC1 (stereo not drawn) [Compound 75, 5-(4-(4-(4-amino-3-(4-phenoxyphenyl)-1H-pyrazolo(3,4-d)pyrimidin-1-yl)piperidine-1-carbonyl)piperazin-1-yl)-2-(2,6-dioxopiperidin-3-yl)isoindoline-1,3-dione] | < 5.00 | < 5.00 | 
7 | dose-dependent degradation |  | > 90% | > 50 nM |  |  | degradation | Nc1ncnc2c1c(-c1ccc(Oc3ccccc3)cc1)nn2[C@@H]1CCCN(CC2CCN(C(=O)N3CCC(CCN4CCN(c5ccc6c(c5)C(=O)N(C5CCC(=O)NC5=O)C6=O)CC4)CC3)CC2)C1 (stereo partly drawn) [Compound 33, 5-(4-(2-(1-(4-(((R)-3-(4-amino-3-(4-phenoxyphenyl)-1H-pyrazolo(3,4-d)pyrimidin-1-yl)piperidin-1-yl)methyl)piperidine-1-carbonyl)piperidin-4-yl)ethyl)piperazin-1-yl)-2-(2,6-dioxopiperidin-3-yl)isoindoline-1,3-dione] | 5.00 to 6.00 | 5.00 to 6.00 | 
8 | dose-dependent degradation |  | > 90% | < 10 nM |  |  | degradation | Nc1ncnc2c1c(-c1ccc(Oc3ccccc3)cc1)nn2C1CCN(CC2CCN(C(=O)N3CCN(c4ccc5c(c4)C(=O)N(C4CCC(=O)NC4=O)C5=O)CC3)CC2)CC1 (stereo not drawn) [Compound 35, 5-(4-(4-((4-(4-amino-3-(4-phenoxyphenyl)-1H-pyrazolo(3,4-d)pyrimidin-1-yl)piperidin-1-yl)methyl)piperidine-1-carbonyl)piperazin-1-yl)-2-(2,6-dioxopiperidin-3-yl)isoindoline-1,3-dione] | 5.00 to 6.00 | > 6.00 | 
9 | dose-dependent degradation |  | > 90% | 10 to 50 nM |  |  | degradation | Nc1ncnc2c1c(-c1ccc(Oc3ccccc3)cc1)nn2C1CCN(CC2CCN(C(=O)N3CCC(CN4CCN(c5ccc6c(c5)C(=O)N(C5CCC(=O)NC5=O)C6=O)CC4)CC3)CC2)CC1 (stereo not drawn) [Compound 41, 5-(4-((1-(4-((4-(4-amino-3-(4-phenoxyphenyl)-1H-pyrazolo(3,4-d)pyrimidin-1-yl)piperidin-1-yl)methyl)piperidine-1-carbonyl)piperidin-4-yl)methyl)piperazin-1-yl)-2-(2,6-dioxopiperidin-3-yl)isoindoline-1,3-dione] | 5.00 to 6.00 | > 6.00 | 
10 |  |  | > 50% | > 50 nM |  |  | degradation | Nc1ncnc2c1c(-c1ccc(Oc3ccccc3)cc1)nn2[C@@H]1CCCN(C(=O)N2CCN(c3ccc4c(c3)C(=O)N(C3CCC(=O)NC3=O)C4=O)CC2)C1 (stereo partly drawn) [Compound 45, 5-(4-((R)-3-(4-amino-3-(4-phenoxyphenyl)-1H-pyrazolo[3,4-d]pyrimidin-1-yl)piperidine-1-carbonyl)piperazin-1-yl)-2-(2,6-dioxopiperidin-3-yl)isoindoline-1,3-dione] | < 5.00 | < 5.00 | 

Row | Compound | degradation of BTK protein [1] | degradation of BTK protein [2] | Dmax [5] | DC50 [5] | DC50 ([1]; read-out: DC50 (BTK degradation), concentration giving 50% reduction of BTK expression level, cell line not given) | Dmax ([1]; read-out: Dmax (BTK degradation)) | degradation of BTK protein at 10^−6 M [1] | pIC50 [3] | pIC50 ([4]; MINO) | pIC50 [4]
11 | Nc1ncnc2c1c(-c1ccc(Oc3ccccc3)cc1)nn2C1CCN(CC2CCN(C(=O)N3CCN(c4ccc5c(c4)CN(C4CCC(=O)NC4=O)C5=O)CC3)CC2)CC1 (stereo not drawn) [Compound 36, 3-(5-(4-(4-((4-(4-amino-3-(4-phenoxyphenyl)-1H-pyrazolo(3,4-d)pyrimidin-1-yl)piperidin-1-yl)methyl)piperidine-1-carbonyl)piperazin-1-yl)-1-oxoisoindolin-2-yl)piperidine-2,6-dione] | dose-dependent degradation | dose-dependent degradation | > 90% | < 10 nM |  |  |  | > 6.00 |  | > 6.00
